Measurements published in US9242984B2, “Pyrazolyl derivatives as Syk inhibitors” (Merck Sharp & Dohme Corp., priority 2012, dated 2016).

target: T1, recombinant human Syk (GST-hSyk fusion protein) (Homo sapiens, UniProt P43405); assay: Homogeneous Time-Resolved Fluorescence (HTRF) assay for the recombinant human Syk enzyme; assay type: biochemical; conditions: 10-dose titration, 25 μM ATP; read-out: rhSYK IC50
T1 construct: purchased Carna Biosciences 08-176
Procedure, shortened: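 IC50 came from a four-parameter fit over ten doses, 10 μM to 0.508 nM, with HTRF read-out (Eu-anti-pTyr antibody, SA-APC, EDTA stop, 30 min). The enzyme, 5 pM GST-hSyk, met compound for 10 min, then phosphorylated 250 nM biotin-peptide with 25 μM ATP and 5 mM Mg for 45 min at room temperature, pH 7.5.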

Which IC50 does the source give for Cc1cc(Nc2nccc(C(F)F)n2)cc(-c2cnn(C3CCCC(O)C3O)c2)c1 (single isomer, unassigned) [Example 10.7, 3-[4-(3-{[4-(difluoromethyl)pyrimidin-2-yl]amino}-5-methylphenyl)-1H-pyrazol-1-yl]cyclohexane-1,2-diol] here?
Its IC50 is 0.7 nM.

Cc1cc(Nc2nccc(C(F)(F)F)n2)cc(-c2cnn(CC3(O)CCNCC3)c2)c1 [Example 12.1, 4-((4-(3-methyl-5-((4-(trifluoromethyl)pyrimidin-2-yl)amino)phenyl)-1H-pyrazol-1-yl)methyl)piperidin-4-ol] was tested. Which IC50 did it give?
The IC50 was 110 nM.

With Cc1cc(Nc2nccc(C(F)(F)F)n2)cc(-c2cnn(C[C@H](O)C(=O)NCCO)c2)c1 [Example 6.1, (2S)-2-hydroxy-N-(2-hydroxyethyl)-3-[4-(3-methyl-5-{[4-(trifluoromethyl)pyrimidin-2-yl]amino}phenyl)-1H-pyrazol-1-yl]propanamide] as the compound, how does the IC50 read?
The IC50 was 21.1 nM.

For Cc1cc(Nc2nccc(C(F)F)n2)cc(-c2cnn(C3CCC(C)(C)C(O)C3(C)O)c2)c1 (stereo not drawn) [Example 22.8, 6-[4-(3-{[4-(difluoromethyl)pyrimidin-2-yl]amino}-5-methylphenyl)-1H-pyrazol-1-yl]-1,3,3-trimethylcyclohexane-1,2-diol], which IC50 is on record?
The IC50 was 5.9 nM.

For Cc1cc(Nc2nccc(C(F)F)n2)cc(-c2cnn(C3CCCC(O)C3O)c2)c1 (single isomer, unassigned) [Example 10.6, 3-[4-(3-{[4-(difluoromethyl)pyrimidin-2-yl]amino}-5-methylphenyl)-1H-pyrazol-1-yl]cyclohexane-1,2-diol], which IC50 is on record?
Its IC50 is 1.3 nM.

same assay, conditions: IC50 class; 10-dose titration, 25 μM ATP; read-out: rhSYK Activity

Which IC50 does the source give for CCOC(=O)CCn1cc(-c2cc(C)cc(Nc3cc(C(F)(F)F)ccn3)n2)cn1 [Example 1.16, ethyl 3-[4-(4-methyl-6-{[4-(trifluoromethyl)pyridin-2-yl]amino}pyridin-2-yl)-1H-pyrazol-1-yl]propanoate] here?
Its IC50 is at most 100 nM.

Which IC50 does the source give for O=C(O)CCc1cnn(-c2cccc(Nc3cc(C(F)(F)F)ccn3)n2)c1 [Example 18.1, 3-(1-(6-((4-(trifluoromethyl)pyridin-2-yl)amino)pyridin-2-yl)-1H-pyrazol-4-yl)propanoic acid] here?
The IC50 was at most 100 nM.

Which IC50 does the source give for Cc1cc(Nc2nccc(C(F)(F)F)n2)cc(-c2cnn(C3CCC(C(N)=O)C(C)(C)C3)c2)c1 (stereo not drawn) [Example 8.19, 2,2-dimethyl-4-[4-(3-methyl-5-{[4-(trifluorometh-yl)pyrimidin-2-yl]amino}phenyl)-1H-pyrazol-1-yl]-cyclohexanecarbox-amide] here?
The IC50 was at most 100 nM.

For Cc1cc(Nc2nccc(C(F)(F)F)n2)cc(-c2cnn([C@@H](C)[C@](C)(O)CO)c2)c1 (single isomer, unassigned) [Example 21.10, 2-methyl-3-[4-(3-methyl-5-{[4-(trifluoromethyl)pyrimidin-2-yl]amino}phenyl)-1H-pyrazol-1-yl]butane-1,2-diol], which IC50 is on record?
Its IC50 is at most 100 nM.

Which IC50 does the source give for COc1ccc2c(-c3cc(C)cc(Nc4nccc(C(F)(F)F)n4)c3)cnn2n1 [Example 2.36, N-[3-(6-methoxypyrazolo[1,5-b]pyridazin-3-yl)-5-methylphenyl]-4-(trifluoromethyl)pyrimidin-2-amine] here?
Its IC50 is at most 100 nM.

With CCC(C)(O)Cn1cc(-c2cc(C)cc(Nc3nccc(C(F)F)n3)c2)cn1 (stereo not drawn) [Example 3.114, 1-[4-(3-{[4-(difluoromethyl)pyrimidin-2-yl]amino}-5-methylphenyl)-1H-pyrazol-1-yl]-2-methylbutan-2-ol] as the compound, how does the IC50 read?
The IC50 was at most 100 nM.

Cc1cc(Nc2nccc(C(F)F)n2)cc(-c2cnn(C3CCCC(O)C3O)c2)c1 (single isomer, unassigned) [Example 10.7, 3-[4-(3-{[4-(difluoromethyl)pyrimidin-2-yl]amino}-5-methylphenyl)-1H-pyrazol-1-yl]cyclohexane-1,2-diol] was tested. Which IC50 did it give?
The IC50 was at most 100 nM.

How did the IC50 turn out when Cc1cc(Nc2nccc(C(F)(F)F)n2)cc(-c2cnn(C(C)C(O)C(N)=O)c2)c1 (stereo not drawn) [Example 7.5, 2-hydroxy-3-[4-(3-methyl-5-{[4-(trifluorometh-yl)pyrimidin-2-yl]amino}-phenyl)-1H-pyrazol-1-yl]butanamide] was run?
The IC50 was at most 100 nM.

With Cc1cc(Nc2nccc(C(F)F)n2)cc(-c2cnn(CCC(N)=O)c2)c1 [Example 2.9, 3-[4-(3-{[4-(difluoromethyl)pyrimidin-2-yl]amino}-5-methylphenyl)-1H-pyrazol-1-yl]propanamide] as the compound, how does the IC50 read?
The IC50 was at most 100 nM.

Cc1cc(Nc2ncc(Cl)c(C)n2)cc(-c2cnn(CCC(N)=O)c2)c1 [Example 2.13, 3-(4-{3-[(5-chloro-4-methylpyrimidin-2-yl)amino]-5-methylphenyl}-1H-pyrazol-1-yl)propanamide] was tested. Which IC50 did it give?
The IC50 was at most 100 nM.

For CCOC(=O)CCc1cnn(-c2cc(C)cc(Nc3nccc(C(F)(F)F)n3)c2)c1 [Example 19.2, Ethyl 3-[1-(3-methyl-5-{[4-(trifluoromethyl)-pyrimidin-2-yl]amino}phenyl)-1H-pyrazol-4-yl]propanoate], which IC50 is on record?
The IC50 was 100 to 1000 nM.

How did the IC50 turn out when “4-{[4-(4-methyl-6-{[4-(trifluoromethyl)pyridin-2-yl]amino}pyridin-2-yl)-1H-pyrazol-1-yl]-methyl}pyrrolidin-2-one [Example 1.38]” was run?
Its IC50 is at most 100 nM.

With O=C(O)C1CCC(n2cc(-c3cc(Cl)cc(Nc4nccc(C(F)(F)F)n4)c3)cn2)CC1 (stereo not drawn) [Example 1.61, 4-[4-(3-chloro-5-{[4-(trifluoromethyl)pyrimidin-2-yl]amino}phenyl)-1H-pyrazol-1-yl]cyclohexanecarboxylic acid] as the compound, how does the IC50 read?
Its IC50 is at most 100 nM.

CCC(O)(CC)Cn1cc(-c2cc(C)cc(Nc3nccc(C(F)F)n3)c2)cn1 [Example 5.32, 3-{[4-(3-{[4-(difluoromethyl)pyrimidin-2-yl]amino}-5-methylphenyl)-1H-pyrazol-1-yl]methyl}pentan-3-ol] was tested. Which IC50 did it give?
Its IC50 is at most 100 nM.

With Cc1cc(Nc2nccc(C(F)(F)F)n2)cc(-c2cnn(CC(O)c3ccc(C(=O)O)cc3)c2)c1 (stereo not drawn) [Example 3.53, 4-{1-hydroxy-2-[4-(3-methyl-5-{[4-(trifluoromethyl)pyrimidin-2-yl]amino}-phenyl)-1H-pyrazol-1-yl]ethyl}benzoic acid] as the compound, how does the IC50 read?
The IC50 was at most 100 nM.

How did the IC50 turn out when CCOC(=O)CCn1cc(-c2cc(C)cc(Nc3nccc(C4CC4)n3)c2)cn1 [Example 2.41, ethyl 3-(4-{3-[(4-cyclopropylpyrimidin-2-yl)amino]-5-methylphenyl}-1H-pyrazol-1-yl)propanoate] was run?
Its IC50 is under 1000 nM.

Cc1cc(Nc2ncc(Cl)c(C)n2)cc(-c2cnn(C[C@@H](O)C(=O)O)c2)c1 [Example 11.7, (2R)-3-(4-{3-[(5-chloro-4-methyl-pyrimidin-2-yl)-amino]-5-methyl-phenyl}-1H-pyrazol-1-yl)-2-hydroxy-propanoic acid] was tested. Which IC50 did it give?
The IC50 was at most 100 nM.

Which IC50 does the source give for Cc1cc(Nc2nccc(C(F)(F)F)n2)cc(-c2cnn(C[C@@H](O)C(=O)O)c2)n1 [Example 11.20, (2R)-2-hydroxy-3-[4-(6-methyl-4-{[4-(trifluoro-methyl)pyrimidin-2-yl]amino}pyridin-2-yl)-1H-pyrazol-1-yl]propanoic acid] here?
The IC50 was at most 100 nM.

With Cc1cc(Nc2nccc(C(F)(F)F)n2)cc(-c2cnn(CC(O)c3ccc(C(N)=O)cc3)c2)c1 (stereo not drawn) [Example 8.12, 4-{1-hydroxy-2-[4-(3-methyl-5-{[4-(trifluoromethyl)-pyrimidin-2-yl]amino}-phenyl)-1H-pyrazol-1-yl]ethyl}benzamide] as the compound, how does the IC50 read?
Its IC50 is at most 100 nM.

Cc1cc(Nc2nccc(C(F)(F)F)n2)cc(-c2cnn(CCS(N)(=O)=O)c2)c1 [9.2] was tested. Which IC50 did it give?
The IC50 was at most 100 nM.

Cc1cc(Nc2nccc(C(F)(F)F)n2)cc(-c2cnn(CC3(O)CCNCC3)c2)c1 [Example 12.1, 4-((4-(3-methyl-5-((4-(trifluoromethyl)pyrimidin-2-yl)amino)phenyl)-1H-pyrazol-1-yl)methyl)piperidin-4-ol] was tested. Which IC50 did it give?
The IC50 was 100 to 1000 nM.

For Cc1cc(Nc2nccc(C(F)(F)F)n2)cc(-c2cnn(C[C@H](O)C(=O)NCCO)c2)c1 [Example 6.1, (2S)-2-hydroxy-N-(2-hydroxyethyl)-3-[4-(3-methyl-5-{[4-(trifluoromethyl)pyrimidin-2-yl]amino}phenyl)-1H-pyrazol-1-yl]propanamide], which IC50 is on record?
Its IC50 is at most 100 nM.

For Cc1cc(Nc2nccc(C(F)F)n2)cc(-c2cnn(CC(O)c3ccccn3)c2)c1 (stereo not drawn) [Example 5.26, 2-[4-(3-{[4-(difluoromethyl)pyrimidin-2-yl]amino}-5-methylphenyl)-1H-pyrazol-1-yl]-1-pyridin-2-ylethanol], which IC50 is on record?
The IC50 was at most 100 nM.

With Cc1cc(Nc2nccc(C(F)(F)F)n2)cc(-c2cnn(CC(O)c3ccc(C(N)=O)cc3)c2)c1 (stereo not drawn) [Example 8.24, 4-{1-hydroxy-2-[4-(3-methyl-5-{[4-(trifluorometh-yl)pyrimidin-2-yl]amino}-phenyl)-1H-pyrazol-1-yl]ethyl}-benzamide] as the compound, how does the IC50 read?
Its IC50 is at most 100 nM.

How did the IC50 turn out when Cc1cc(Nc2nccc(C(F)(F)F)n2)cc(-c2cnn(C3CCNC(=O)CC3)c2)c1 (single isomer, unassigned) [14 (isomer 1)] was run?
Its IC50 is at most 100 nM.

How did the IC50 turn out when Cc1cc(Nc2nccc(C(F)F)n2)cc(-c2cnn(C3CCC(C)(C)C(O)C3(C)O)c2)c1 (stereo not drawn) [Example 22.8, 6-[4-(3-{[4-(difluoromethyl)pyrimidin-2-yl]amino}-5-methylphenyl)-1H-pyrazol-1-yl]-1,3,3-trimethylcyclohexane-1,2-diol] was run?
Its IC50 is at most 100 nM.

For Cc1cc(Nc2nccc(C(F)F)n2)cc(-c2cnn(C3CCCC(O)C3O)c2)c1 (single isomer, unassigned) [Example 10.6, 3-[4-(3-{[4-(difluoromethyl)pyrimidin-2-yl]amino}-5-methylphenyl)-1H-pyrazol-1-yl]cyclohexane-1,2-diol], which IC50 is on record?
Its IC50 is at most 100 nM.

How did the IC50 turn out when Cc1cc(Nc2nccc(C3CC3)n2)cc(-c2cnn(C[C@H](O)C(=O)O)c2)c1 [Example 11.5, (2S)-3-(4-{3-[(4-cyclopropylpyrimidin-2-yl)amino]-5-methyl-phenyl}-1H-pyrazol-1-yl)-2-hydroxy-propanoic acid] was run?
The IC50 was at most 100 nM.

With Cc1cc(Nc2nccc(C(F)F)n2)cc(-c2cnn(CC(O)C(F)(F)F)c2)c1 (stereo not drawn) [Example 5.24, 3-[4-(3-{[4-(difluoromethyl)pyrimidin-2-yl]amino}-5-methylphenyl)-1H-pyrazol-1-yl]-1,1,1-trifluoropropan-2-ol] as the compound, how does the IC50 read?
Its IC50 is at most 100 nM.

Which IC50 does the source give for O=C1NCC(Cn2cc(-c3cccc(Nc4nccc(C(F)(F)F)n4)c3)cn2)O1 (stereo not drawn) [Example 2.34, 5-{[4-(3-{[4-(trifluoromethyl)pyrimidin-2-yl]amino}phenyl)-1H-pyrazol-1-yl]methyl}-1,3-oxazolidin-2-one] here?
Its IC50 is at most 100 nM.

For Cc1cc(Nc2nccc(C(F)(F)F)n2)cc(-c2ccnn2C(C)C)c1 [Example 1.8, N-{3-methyl-5-[1-(1-methylethyl)-1H-pyrazol-5-yl]phenyl}-4-(trifluoromethyl)pyrimidin-2-amine], which IC50 is on record?
Its IC50 is 100 to 1000 nM.

Cc1cc(Nc2nccc(C(F)F)n2)cc(-c2cnn(CC3OC(=O)NC3C3CC3)c2)c1 (single isomer, unassigned) [Example 23.18, 4-cyclopropyl-5-{[4-(3-{[4-(difluoromethyl)pyrimidin-2-yl]amino}-5-methylphenyl)-1H-pyrazol-1-yl]methyl}-1,3-oxazolidin-2-one] was tested. Which IC50 did it give?
Its IC50 is at most 100 nM.

Cc1cc(Nc2nccc(C(F)F)n2)cc(-c2cnn(CC(O)Cn3cccn3)c2)c1 (stereo not drawn) [Example 5.25, 1-[4-(3-{[4-(difluoromethyl)pyrimidin-2-yl]amino}-5-methylphenyl)-1H-pyrazol-1-yl]-3-(1H-pyrazol-1-yl)propan-2-ol] was tested. Which IC50 did it give?
Its IC50 is at most 100 nM.

Cc1cc(Nc2nccc(C(F)F)n2)cc(-c2cnn(CC3(O)CCC3)c2)c1 [Example 5.41, 1-{[4-(3-{[4-(difluoromethyl)pyrimidin-2-yl]amino}-5-methylphenyl)-1H-pyrazol-1-yl]methyl}cyclobutanol] was tested. Which IC50 did it give?
The IC50 was at most 100 nM.
